From EP0888055B1, “HERBICIDAL COMPOSITION AND METHOD OF WEED CONTROL” (Novartis AG, priority 1996, dated 1997)

Key:
[1] = tested on: Maize; assay: Pre-emergence test (Example B2), tolerance of useful plant; assay type: in vivo
From the text: (§1) The test plants are sown in plastics pots in standard soil. Directly after sowing the test compounds are applied by spraying, separately or in admixture, in the form of an aqueous suspension of the test compounds (Formulation Example F8, c) and d)) or in the form of an emulsion concentrate (Formulation Example F1, d)) in 500 l of water/ha. The rates of application conform to the optimum concentrations ascertained under field conditions and greenhouse conditions. The test plants are then cultivated in the greenhouse under optimum conditions. After 34 days' (Tables B2 to B5) and 41 days' (Table B6) test duration, the test is evaluated (% action, 100 % = plants have died, 0 % = no phytotoxic action). From 61 to 80 % (especially from 81 to 100 %) phytotoxicity indicates good to very good herbicidal action in weeds; from 0 to 15 % (especially from 0 to 5 %) phytotoxicity indicates good to very good tolerance in useful plants.

[2] = tested on: Abutilon; assay: Pre-emergence test (Example B2); assay type: in vivo
From the text: (§2) The expected herbicidal action E for a given combination of two herbicides can be calculated as follows (see COLBY, S.R., "Calculating synergistic and antagonistic response of herbicide combinations", Weeds 15, pages 20-22, 1967): E = X +(Y • (100 - X))/(100) [formula]
(§3) In the above formula: X = percentage growth inhibition in the case of treatment with the compound of formula A at a rate of application of p kg per hectare compared with the untreated control (= 0 %). Y = percentage herbicidal action in the case of treatment with one of the mixing partners at a rate of application of q kg per hectare compared with the untreated control. E = Expected herbicidal action (percentage herbicidal action compared with the untreated control) after treatment with the compounds of formulae A and the mixing partners at a rate of application of p + q kg of active ingredient per hectare.
as §1
(§4) Test plants: abutilon, bidens, euphorbia, ipomoea, sesbamia, xanthium, rottboellia, sida, Sorghum bicolor.

[3] = tested on: Bidens; assay: Pre-emergence test (Example B2); assay type: in vivo; conditions: 34 days
From the text: as §2, §3, §1, §4

[4] = tested on: Euphorbia; assay: Pre-emergence test (Example B2); assay type: in vivo
From the text: as §2, §3, §1, §4

[5] = tested on: Ipomoea; assay: Pre-emergence test (Example B2); assay type: in vivo
From the text: as §2, §3, §1, §4

[6] = tested on: Xanthium; assay: Pre-emergence test (Example B2); assay type: in vivo; conditions: 34 days
From the text: as §2, §3, §1, §4

[7] = tested on: Rottboellia; assay: Pre-emergence test (Example B2); assay type: in vivo
From the text: as §2, §3, §1, §4

[8] = tested on: Sida; assay: Pre-emergence test (Example B2); assay type: in vivo
From the text: as §2, §3, §1, §4

[9] = tested on: Sorghum bic.; assay: Pre-emergence test (Example B2); assay type: in vivo, Sorghum bicolor; conditions: 1000 g active ingredient/ha, 41 days
From the text: as §2, §3
The test plants are sown in plastics pots in standard soil. Directly after sowing the test compounds are applied by spraying, separately or in admixture, in the form of an aqueous suspension of the test compounds (Formulation Example F8, c) and d)) or in the form of an emulsion concentrate (Formulation Example F1, d)) in 500 l of water/ha. […] After 34 days' (Tables B2 to B5) and 41 days' (Table B6) test duration, the test is evaluated (% action, 100 % = plants have died, 0 % = no phytotoxic action). […]

[10] = tested on: Sesbania; assay: Pre-emergence test (Example B2); assay type: in vivo; conditions: 1000 g active ingredient/ha, 34 days
From the text: as §2, §3, §1, §4

[11] = 125 g active ingredient/ha, 34 days
[12] = 250 g active ingredient/ha, 34 days
[13] = 500 g active ingredient/ha, 34 days
[14] = 125 g active ingredient/ha, 41 days
[15] = 250 g active ingredient/ha, 41 days
[16] = 500 g active ingredient/ha, 41 days
[17] = 1000 g active ingredient/ha, 41 days
[18] = 1000 g active ingredient/ha, 34 days

CCNc1nc(Cl)nc(NC(C)C)n1 [Atra, atrazine]
Herbicidal activity, Useful plant: Maize [1, 11]: 0% | Herbicidal activity, Useful plant: Maize [1, 12]: 0% | Herbicidal activity, Useful plant: Maize [1, 13]: 0% | Herbicidal activity, Weed: Abutilon [2, 11]: 0% | Herbicidal activity, Weed: Abutilon [2, 13]: 98% | Herbicidal activity, Weed: Bidens ([3]; 125 g active ingredient/ha): 60% | Herbicidal activity, Weed: Euphorbia [4, 11]: 0% | Herbicidal activity, Weed: Ipomoea [5, 11]: 0% | Herbicidal activity, Weed: Ipomoea [5, 12]: 70% | Herbicidal activity, Weed: Xanthium ([6]; 250 g active ingredient/ha): 0% | Herbicidal activity, Weed: Xanthium ([6]; 500 g active ingredient/ha): 95%

COCC(C)N(C(=O)CCl)c1c(C)csc1C (centres unmarked) [Dime, dimethenamid]
Herbicidal activity, Useful plant: Maize [1, 14]: 0% | Herbicidal activity, Useful plant: Maize [1, 15]: 0% | Herbicidal activity, Useful plant: Maize [1, 16]: 0% | Herbicidal activity, Useful plant: Maize [1, 17]: 20% | Herbicidal activity, Weed: Abutilon [2, 15]: 10% | Herbicidal activity, Weed: Euphorbia [4, 16]: 30% | Herbicidal activity, Weed: Ipomoea [5, 17]: 0% | Herbicidal activity, Weed: Rottboellia [7, 14]: 20% | Herbicidal activity, Weed: Sida [8, 15]: 40% | Herbicidal activity, Weed: Sida [8, 16]: 85% | Herbicidal activity, Weed: Sida [8, 17]: 95% | Herbicidal activity, Weed: Sorghum bic. [9]: 80%

CCc1cccc(C)c1N(C(=O)CCl)C(C)COC (racemic) [Met.rac., metolachlor]
Herbicidal activity, Useful plant: Maize [1, 12]: 0% | Herbicidal activity, Useful plant: Maize [1, 13]: 0% | Herbicidal activity, Useful plant: Maize [1, 18]: 0% | Herbicidal activity, Weed: Abutilon [2, 13]: 20% | Herbicidal activity, Weed: Abutilon [2, 18]: 20% | Herbicidal activity, Weed: Bidens ([3]; 1000 g active ingredient/ha): 30% | Herbicidal activity, Weed: Euphorbia [4, 13]: 0% | Herbicidal activity, Weed: Ipomoea [5, 18]: 0% | Herbicidal activity, Weed: Rottboellia [7, 18]: 0% | Herbicidal activity, Weed: Sesbania [10]: 60% | Herbicidal activity, Weed: Sida [8, 12]: 0% | Herbicidal activity, Weed: Sida [8, 13]: 50%
